Assay results from ChEMBL document CHEMBL1833965, “A new N-methyl thymine derivative comprising a dihydroxyisobutenyl unit as ligand for thymidine kinase of herpes simplex virus type 1 (HSV-1 TK)” (Bioorg Med Chem Lett, 2011).
The source made the active and inactive calls. No cut-off for these calls is given here.

Experiments:
[1] = tested on: MIA PaCa-2; test: Antiproliferative activity against human MIAPaCa2 cells after 72 hrs by MTT assay; assay type: functional, cell-based; details: MIA PaCa-2, 72 h
[2] = tested on: MCF7; test: Antiproliferative activity against human MCF7 cells after 72 hrs by MTT assay; assay type: functional, cell-based; details: MCF7, 72 h
[3] = tested on: HeLa; test: Antiproliferative activity against human HeLa cells after 72 hrs by MTT assay; assay type: functional, cell-based
[4] = tested on: HepG2; test: Antiproliferative activity against human HepG2 cells after 72 hrs by MTT assay; assay type: functional, cell-based; details: HepG2, 72 h
[5] = tested on: WI-38; test: Antiproliferative activity against human WI38 cells after 72 hrs by MTT assay; assay type: cell-based; details: WI-38, 72 h
[6] = tested on: SW-620; test: Antiproliferative activity against human SW620 cells after 72 hrs by MTT assay; assay type: functional, cell-based; details: SW-620, 72 h
[7] = biological target: T1, Thymidine kinase (Human alphaherpesvirus 1) (UniProt Q9QNF7); test: Activity of HSV-1 GST-TK assessed as formation of ADP by HPLC analysis
T1 sequence (whole entry): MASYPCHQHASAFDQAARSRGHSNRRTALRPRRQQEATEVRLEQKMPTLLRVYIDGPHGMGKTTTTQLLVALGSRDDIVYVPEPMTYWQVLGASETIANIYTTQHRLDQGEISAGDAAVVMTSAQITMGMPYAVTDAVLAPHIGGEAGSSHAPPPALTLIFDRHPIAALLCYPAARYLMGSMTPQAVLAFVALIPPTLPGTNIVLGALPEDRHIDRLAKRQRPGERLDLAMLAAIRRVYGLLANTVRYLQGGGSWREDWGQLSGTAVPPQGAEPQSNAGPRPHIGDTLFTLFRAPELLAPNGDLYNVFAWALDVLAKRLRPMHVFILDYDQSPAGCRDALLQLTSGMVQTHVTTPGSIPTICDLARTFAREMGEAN

[8] = biological target: T1, Thymidine kinase (Human alphaherpesvirus 1); test: Activity of HSV-1 GST-TK assessed as increase in ADP to ATP ratio at 1 mM after 30 mins
[9] = biological target: T1, Thymidine kinase (Human alphaherpesvirus 1); test: Activity of HSV-1 GST-TK assessed as formation of compound-monophosphate by HPLC analysis
[10] = biological target: T2, Thymidine kinase, cytosolic (Homo sapiens) (UniProt P04183); test: Activity of human 6xHis-tagged TK assessed as formation of compound-monophosphate by HPLC analysis
T2 sequence (whole entry): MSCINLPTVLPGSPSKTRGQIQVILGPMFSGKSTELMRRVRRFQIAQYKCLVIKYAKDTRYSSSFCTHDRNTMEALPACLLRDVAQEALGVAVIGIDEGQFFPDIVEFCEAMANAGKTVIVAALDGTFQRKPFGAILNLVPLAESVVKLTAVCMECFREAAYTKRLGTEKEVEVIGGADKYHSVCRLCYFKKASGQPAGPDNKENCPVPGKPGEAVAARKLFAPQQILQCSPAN

[11] = biological target: T2, Thymidine kinase, cytosolic (Homo sapiens); test: Activity of human 6xHis-tagged TK assessed as effect on ADP to ATP ratio at 1 mM after 30 mins
[12] = biological target: T2, Thymidine kinase, cytosolic (Homo sapiens); test: Activity of human 6xHis-tagged TK assessed as formation of ADP by HPLC analysis

Structure (SMILES)	IC50 [1]	IC50 [2]	IC50 [3]	IC50 [4]	IC50 [5]	IC50 [6]	Activity [7]	Activity [8]	Activity [9]	Activity [10]	Activity [11]	Activity [12]
COc1nc(=O)n(C)c(CC(O)(CO)CO)c1C	> 100 µM	> 100 µM	> 100 µM	> 100 µM	> 100 µM	> 100 µM						
COc1nc(CC(F)(COC(C)=O)COC(C)=O)c(C)c(OC)n1	> 100 µM	> 100 µM	> 100 µM	> 100 µM	> 100 µM	> 100 µM						
COc1nc(=O)n(C)c(CC(O)(COCc2ccccc2)COCc2ccccc2)c1C	33.5 µM	23.7 µM	29.5 µM	33.9 µM	49.8 µM	57.2 µM						
CC(=O)OCC(F)(COC(C)=O)Cc1c(C)c(=O)[nH]c(=O)n1C	> 100 µM	> 100 µM	> 100 µM	> 100 µM	> 100 µM	> 100 µM						
COc1nc(CC(O)(COCc2ccccc2)COCc2ccccc2)c(C)c(OC)n1	6.08 µM	4.22 µM	3.67 µM	2.42 µM	3.84 µM	3.48 µM						
Cc1c(CC(O)(CO)CO)n(C)c(=O)[nH]c1=O	> 100 µM	> 100 µM	> 100 µM	> 100 µM	> 100 µM	> 100 µM						
CC(=O)OCC(O)(COC(C)=O)Cc1c(C)c(=O)[nH]c(=O)n1C	> 100 µM	> 100 µM	> 100 µM	> 100 µM	> 100 µM	> 100 µM						
Cc1c(C=C(CO)CO)n(C)c(=O)[nH]c1=O	> 100 µM	> 100 µM	> 100 µM	> 100 µM	> 100 µM	> 100 µM	Active	Active	Active	inactive	inactive	inactive
COc1nc(CC(O)(COC(C)=O)COC(C)=O)c(C)c(OC)n1	> 100 µM	> 100 µM	> 100 µM	> 100 µM	> 100 µM	> 100 µM						
COc1nc(=O)n(C)c(CC(O)(COC(C)=O)COC(C)=O)c1C	> 100 µM	> 100 µM	> 100 µM	> 100 µM	> 100 µM	> 100 µM						
COc1nc(CC(O)(CO)CO)c(C)c(OC)n1	> 100 µM	> 100 µM	> 100 µM	> 100 µM	> 100 µM	> 100 µM						
CC(=O)OCC(=Cc1c(C)c(=O)[nH]c(=O)n1C)COC(C)=O	> 100 µM	> 100 µM	> 100 µM	> 100 µM	> 100 µM	> 100 µM						
COc1nc(=O)n(C)c(CC(F)(COC(C)=O)COC(C)=O)c1C	> 100 µM	> 100 µM	> 100 µM	> 100 µM	> 100 µM	> 100 µM						
